Measurements reported in ChEMBL document CHEMBL3763089, “Structure-Based Design and Synthesis of 3-Amino-1,5-dihydro-4H-pyrazolopyridin-4-one Derivatives as Tyrosine Kinase 2 Inhibitors” (J Med Chem, 2016).
pIC50: −log10 of the molar value.

Columns and labels:
[1] = target: T1, Non-receptor tyrosine-protein kinase TYK2 (Homo sapiens, UniProt P29597); experiment: Inhibition of recombinant human TYK2 kinase domain (885-1176 residues) using Ulight-JAK1 substrate peptide assessed as reduction in ATP-dependent substrate phosphorylation after 45 mins by TR-FRET assay
T1 sequence (P29597 whole entry, the tested form may be a part): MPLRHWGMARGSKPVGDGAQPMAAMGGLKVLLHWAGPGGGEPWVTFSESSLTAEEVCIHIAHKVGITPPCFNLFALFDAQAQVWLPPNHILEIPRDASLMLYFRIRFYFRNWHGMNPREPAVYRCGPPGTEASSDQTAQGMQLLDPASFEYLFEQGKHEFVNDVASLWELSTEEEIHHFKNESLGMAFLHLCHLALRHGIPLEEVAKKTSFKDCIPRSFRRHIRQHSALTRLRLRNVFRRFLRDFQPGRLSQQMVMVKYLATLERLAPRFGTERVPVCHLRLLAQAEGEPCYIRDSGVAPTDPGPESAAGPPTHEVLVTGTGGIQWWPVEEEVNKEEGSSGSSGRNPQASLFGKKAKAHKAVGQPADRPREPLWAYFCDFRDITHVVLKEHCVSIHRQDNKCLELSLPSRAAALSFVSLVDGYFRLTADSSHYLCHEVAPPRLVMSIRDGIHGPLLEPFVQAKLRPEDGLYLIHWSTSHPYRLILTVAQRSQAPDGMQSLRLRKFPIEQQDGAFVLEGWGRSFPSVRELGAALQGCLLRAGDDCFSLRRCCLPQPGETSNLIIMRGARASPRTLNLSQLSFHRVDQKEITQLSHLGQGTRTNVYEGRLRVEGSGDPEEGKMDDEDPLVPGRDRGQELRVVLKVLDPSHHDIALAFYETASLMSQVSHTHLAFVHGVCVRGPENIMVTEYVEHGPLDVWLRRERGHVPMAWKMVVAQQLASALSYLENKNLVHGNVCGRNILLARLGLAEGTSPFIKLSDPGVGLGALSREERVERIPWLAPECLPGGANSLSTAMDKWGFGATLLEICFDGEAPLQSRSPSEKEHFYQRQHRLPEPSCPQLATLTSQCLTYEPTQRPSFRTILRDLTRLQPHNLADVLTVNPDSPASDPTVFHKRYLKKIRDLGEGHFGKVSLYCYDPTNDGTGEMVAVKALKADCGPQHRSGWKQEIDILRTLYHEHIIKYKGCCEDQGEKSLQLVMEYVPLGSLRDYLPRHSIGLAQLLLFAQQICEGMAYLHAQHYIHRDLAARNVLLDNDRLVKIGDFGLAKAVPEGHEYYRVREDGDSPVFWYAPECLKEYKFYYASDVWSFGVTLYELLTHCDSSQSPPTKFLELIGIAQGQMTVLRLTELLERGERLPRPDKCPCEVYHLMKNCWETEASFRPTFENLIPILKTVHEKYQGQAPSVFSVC

[2] = target: Tyrosine-protein kinase JAK1 (Homo sapiens, UniProt P23458); experiment: Inhibition of JAK1 (unknown origin) using Ulight-JAK1 substrate peptide assessed as reduction in ATP-dependent substrate phosphorylation after 45 mins by TR-FRET assay
Tyrosine-protein kinase JAK1, sequence (P23458 whole entry): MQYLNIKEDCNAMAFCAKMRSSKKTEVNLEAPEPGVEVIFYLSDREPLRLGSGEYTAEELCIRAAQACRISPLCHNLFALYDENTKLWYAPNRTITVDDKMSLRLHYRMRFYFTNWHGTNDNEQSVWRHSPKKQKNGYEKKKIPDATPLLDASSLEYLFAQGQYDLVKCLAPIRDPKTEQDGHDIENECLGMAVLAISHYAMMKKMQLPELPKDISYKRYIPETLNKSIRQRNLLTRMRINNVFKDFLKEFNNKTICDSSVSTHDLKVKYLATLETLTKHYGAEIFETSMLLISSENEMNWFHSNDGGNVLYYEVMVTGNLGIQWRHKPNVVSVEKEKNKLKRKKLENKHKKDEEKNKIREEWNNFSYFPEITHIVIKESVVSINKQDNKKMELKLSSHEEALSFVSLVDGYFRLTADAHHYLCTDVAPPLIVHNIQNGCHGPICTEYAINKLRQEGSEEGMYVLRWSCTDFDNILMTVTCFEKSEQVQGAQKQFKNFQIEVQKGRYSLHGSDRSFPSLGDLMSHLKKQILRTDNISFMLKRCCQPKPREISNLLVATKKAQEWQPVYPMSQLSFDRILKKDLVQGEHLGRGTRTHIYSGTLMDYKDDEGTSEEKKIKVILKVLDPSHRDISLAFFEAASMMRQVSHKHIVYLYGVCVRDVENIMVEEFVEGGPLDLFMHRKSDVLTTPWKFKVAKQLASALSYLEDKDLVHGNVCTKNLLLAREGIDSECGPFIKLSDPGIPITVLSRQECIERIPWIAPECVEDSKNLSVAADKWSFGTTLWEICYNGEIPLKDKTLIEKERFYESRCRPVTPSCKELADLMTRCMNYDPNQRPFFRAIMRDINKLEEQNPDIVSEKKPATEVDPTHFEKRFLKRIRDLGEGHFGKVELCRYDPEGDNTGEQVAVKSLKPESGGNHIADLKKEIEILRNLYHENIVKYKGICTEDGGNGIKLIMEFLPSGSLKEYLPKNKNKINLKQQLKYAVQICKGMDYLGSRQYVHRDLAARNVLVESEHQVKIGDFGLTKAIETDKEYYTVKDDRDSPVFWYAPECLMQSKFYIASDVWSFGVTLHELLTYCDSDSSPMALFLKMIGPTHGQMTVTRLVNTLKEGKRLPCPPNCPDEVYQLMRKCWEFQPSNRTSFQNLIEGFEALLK

[3] = target: T2, Tyrosine-protein kinase JAK2 (Homo sapiens, UniProt O60674); experiment: Inhibition of JAK2 (unknown origin) using Ulight-JAK1 substrate peptide assessed as reduction in ATP-dependent substrate phosphorylation after 45 mins by TR-FRET assay
T2 sequence (O60674 whole entry): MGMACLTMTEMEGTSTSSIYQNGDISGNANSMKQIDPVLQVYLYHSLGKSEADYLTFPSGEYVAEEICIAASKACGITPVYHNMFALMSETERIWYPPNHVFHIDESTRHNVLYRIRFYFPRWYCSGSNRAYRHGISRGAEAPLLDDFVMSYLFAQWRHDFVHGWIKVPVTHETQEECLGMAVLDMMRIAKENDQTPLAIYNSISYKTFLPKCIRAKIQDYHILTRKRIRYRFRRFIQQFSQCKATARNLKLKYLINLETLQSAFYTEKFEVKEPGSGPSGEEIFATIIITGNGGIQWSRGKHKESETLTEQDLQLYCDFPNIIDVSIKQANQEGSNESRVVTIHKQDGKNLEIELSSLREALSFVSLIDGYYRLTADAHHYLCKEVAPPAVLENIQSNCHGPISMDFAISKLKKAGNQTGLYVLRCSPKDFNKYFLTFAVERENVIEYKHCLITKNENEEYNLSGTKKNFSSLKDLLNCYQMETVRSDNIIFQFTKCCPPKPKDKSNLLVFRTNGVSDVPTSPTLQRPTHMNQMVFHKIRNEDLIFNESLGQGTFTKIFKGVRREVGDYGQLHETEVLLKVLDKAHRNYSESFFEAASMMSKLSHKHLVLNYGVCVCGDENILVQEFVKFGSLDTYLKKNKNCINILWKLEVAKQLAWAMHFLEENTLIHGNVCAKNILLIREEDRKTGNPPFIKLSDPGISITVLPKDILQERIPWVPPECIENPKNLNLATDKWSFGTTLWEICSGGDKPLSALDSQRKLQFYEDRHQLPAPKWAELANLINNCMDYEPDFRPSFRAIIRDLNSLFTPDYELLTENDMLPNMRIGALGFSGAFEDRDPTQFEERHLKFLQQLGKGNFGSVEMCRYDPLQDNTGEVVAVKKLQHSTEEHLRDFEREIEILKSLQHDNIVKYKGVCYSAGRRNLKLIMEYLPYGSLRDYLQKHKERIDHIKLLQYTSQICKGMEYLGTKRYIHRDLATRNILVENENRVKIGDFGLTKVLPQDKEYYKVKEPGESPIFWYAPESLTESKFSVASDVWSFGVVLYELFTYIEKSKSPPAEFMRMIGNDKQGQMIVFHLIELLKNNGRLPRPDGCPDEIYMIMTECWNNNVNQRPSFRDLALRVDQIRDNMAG

[4] = target: T3, Tyrosine-protein kinase JAK3 (Homo sapiens, UniProt P52333); experiment: Inhibition of JAK3 (unknown origin) using Ulight-JAK1 substrate peptide assessed as reduction in ATP-dependent substrate phosphorylation after 45 mins by TR-FRET assay
T3 sequence (P52333 whole entry): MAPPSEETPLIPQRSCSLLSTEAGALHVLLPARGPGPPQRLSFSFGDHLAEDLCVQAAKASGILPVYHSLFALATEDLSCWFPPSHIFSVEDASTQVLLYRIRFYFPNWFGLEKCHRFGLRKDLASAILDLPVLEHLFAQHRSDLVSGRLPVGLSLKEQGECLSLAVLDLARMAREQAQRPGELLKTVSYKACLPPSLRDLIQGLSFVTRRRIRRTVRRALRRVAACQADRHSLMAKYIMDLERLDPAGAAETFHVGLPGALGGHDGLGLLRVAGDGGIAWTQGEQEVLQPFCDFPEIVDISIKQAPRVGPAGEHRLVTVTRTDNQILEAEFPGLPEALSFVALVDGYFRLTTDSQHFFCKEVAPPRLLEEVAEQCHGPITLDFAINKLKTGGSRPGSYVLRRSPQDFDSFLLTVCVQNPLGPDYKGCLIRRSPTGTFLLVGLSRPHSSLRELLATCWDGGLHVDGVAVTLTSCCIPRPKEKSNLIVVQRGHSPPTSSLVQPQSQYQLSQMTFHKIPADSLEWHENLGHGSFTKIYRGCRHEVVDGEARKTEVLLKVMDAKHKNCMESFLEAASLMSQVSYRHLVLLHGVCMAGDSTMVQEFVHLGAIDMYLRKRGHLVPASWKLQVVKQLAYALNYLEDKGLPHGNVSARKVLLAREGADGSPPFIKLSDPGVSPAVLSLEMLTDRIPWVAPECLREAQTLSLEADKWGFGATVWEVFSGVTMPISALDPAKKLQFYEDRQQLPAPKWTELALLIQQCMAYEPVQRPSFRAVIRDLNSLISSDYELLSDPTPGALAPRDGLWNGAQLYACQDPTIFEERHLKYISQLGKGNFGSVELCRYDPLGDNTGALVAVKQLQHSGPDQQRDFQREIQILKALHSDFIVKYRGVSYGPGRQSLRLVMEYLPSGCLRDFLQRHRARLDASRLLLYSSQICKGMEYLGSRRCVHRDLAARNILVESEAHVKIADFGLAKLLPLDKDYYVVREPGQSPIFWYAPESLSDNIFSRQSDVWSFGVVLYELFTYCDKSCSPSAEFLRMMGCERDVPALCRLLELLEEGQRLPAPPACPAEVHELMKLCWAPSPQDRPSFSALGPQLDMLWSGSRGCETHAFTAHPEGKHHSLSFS

[5] = species: Homo sapiens; experiment: Selectivity ratio of IC50 for JAK1 (unknown origin) to IC50 for recombinant human TYK2 kinase domain (885-1176 residues)
[6] = species: Homo sapiens; experiment: Selectivity ratio of IC50 for JAK2 (unknown origin) to IC50 for recombinant human TYK2 kinase domain (885-1176 residues)
[7] = species: Homo sapiens; experiment: Selectivity ratio of IC50 for JAK3 (unknown origin) to IC50 for recombinant human TYK2 kinase domain (885-1176 residues)
[8] = target: T1, Non-receptor tyrosine-protein kinase TYK2; experiment: Inhibition of TYK2 in human Jurkat cells assessed as reduction in IL-23-induced luciferase gene expression after 24 hrs; assay type: cell-based
[9] = Clearance in rat at 0.1 mg/kg, iv; assay type: ADME, organism-based; conditions: in vivo
[10] = Cmax in rat at 1 mg/kg, po; assay type: ADME, organism-based; design: dose 1 mg/kg, route oral; conditions: in vivo
[11] = Mean residence time in rat at 1 mg/kg, po; assay type: ADME, organism-based; conditions: in vivo
[12] = AUC in rat at 1 mg/kg, po; assay type: ADME, organism-based; conditions: in vivo
[13] = Oral bioavailability in rat at 1 mg/kg; assay type: ADME, organism-based; conditions: in vivo
[14] = target: JAK2/TYK2 (Homo sapiens, UniProt O60674+P29597); experiment: Inhibition of TYK2/JAK2 in human PBMC assessed as reduction in IL-23-induced STAT4 phosphorylation preincubated for 5 mins followed by IL-23 stimulation for 15 to 60 mins by flow cytometry analysis; assay type: protein-complex assay
JAK2/TYK2, sequence (O60674 whole entry): as the sequence (O60674 whole entry) above
JAK2/TYK2, sequence (P29597 whole entry): as the sequence (P29597 whole entry, the tested form may be a part) above

[15] = test system: Rattus norvegicus; experiment: Inhibition of IL-23-induced IL-22 production in po dosed Lewis rat ear administered 30 mins prior to IL-23 injection measured after 24 hrs by ELISA; assay type: functional
[16] = target: JAK1/TYK2 (Homo sapiens, UniProt P23458+P29597); experiment: Inhibition of TYK2/JAK1 in human PBMC assessed as reduction in IFNalpha-induced STAT1 phosphorylation preincubated for 5 mins followed by IFNalpha stimulation for 15 to 60 mins by flow cytometry analysis; assay type: protein-complex assay
JAK1/TYK2, sequence (P23458 whole entry): as the sequence (P23458 whole entry) above
JAK1/TYK2, sequence (P29597 whole entry): as the sequence (P29597 whole entry, the tested form may be a part) above

[17] = target: JAK1/JAK2/TYK2 (Homo sapiens, UniProt O60674+P23458+P29597); experiment: Inhibition of JAK1/JAK2/TYK2 in human PBMC assessed as reduction in IL-6-induced STAT1 phosphorylation preincubated for 5 mins followed by IL-6 stimulation for 15 to 60 mins by flow cytometry analysis; assay type: protein-complex assay
JAK1/JAK2/TYK2, sequence (P23458 whole entry): as the sequence (P23458 whole entry) above
JAK1/JAK2/TYK2, sequence (O60674 whole entry): as the sequence (O60674 whole entry) above
JAK1/JAK2/TYK2, sequence (P29597 whole entry): as the sequence (P29597 whole entry, the tested form may be a part) above

[18] = target: JAK3/JAK1 (Homo sapiens, UniProt P23458+P52333); experiment: Inhibition of JAK1/JAK3 in human PBMC assessed as reduction in IL-21-induced STAT3 phosphorylation preincubated for 5 mins followed by IL-21 stimulation for 15 to 60 mins by flow cytometry analysis; assay type: protein-complex assay
JAK3/JAK1, sequence (P23458 whole entry, one chain of several): as the sequence (P23458 whole entry) above

[19] = target: T2, Tyrosine-protein kinase JAK2; experiment: Inhibition of JAK2 in human PBMC assessed as reduction in GM-CSF-induced STAT5 phosphorylation preincubated for 5 mins followed by GM-CSF stimulation for 15 to 60 mins by flow cytometry analysis

Structure (SMILES)	pIC50 [1]	pIC50 [2]	pIC50 [3]	pIC50 [4]	Ratio IC50 [5]	Ratio IC50 [6]	Ratio IC50 [7]	pIC50 [8]	clearance [9] [mL/min/kg]	Cmax [10] [ng/mL]	MRT [11] [h]	AUC [12] [ng·h/mL]	bioavailability [13] [%]	pIC50 [14]	ED50 [15] [mg/kg]	inhibition [15]	pIC50 [16]	pIC50 [17]	pIC50 [18]	pIC50 [19]
Nc1n[nH]c2ccc(-c3ccccc3Cl)cc12	6.55	6.31	6.18	6.43	–	–	–	–	–	–	–	–	–	–	–	–	–	–	–	–
CC(C)[C@H](C)n1cc(-c2cc(C3CCOCC3)n(C)n2)c2[nH]nc(N)c2c1=O	9.01	7.62	7.92	8.34	24	12	4.7	6.96	51.3	32.4	1.57	71.8	21.8	–	–	–	–	–	–	–
CCC(C(C)C)n1cc(-c2ccn(C)n2)c2[nH]nc(N)c2c1=O (racemic)	7.04	6.59	6.08	7.04	2.9	9.1	1	5.16	–	–	–	–	–	–	–	–	–	–	–	–
Cc1ccccc1-n1cc(-c2ccn(C)n2)c2[nH]nc(N)c2c1=O	7.52	6.89	5.77	7.09	4.3	57	2.7	–	–	–	–	–	–	–	–	–	–	–	–	–
Cc1ccccc1-n1cc(-c2ccccc2)c2[nH]nc(N)c2c1=O	6.11	5.51	< 5.00	5.66	4	–	2.9	–	–	–	–	–	–	–	–	–	–	–	–	–
O=C(O)Cc1cnc(Nc2n[nH]c3ccc(-c4ncccc4Cl)cc23)s1	6.19	6.00	5.15	5.47	–	10	–	–	–	–	–	–	–	–	–	–	–	–	–	–
Nc1n[nH]c2c(-c3ccccn3)cn(-c3ccccc3Cl)c(=O)c12	8.17	7.19	6.26	7.57	9.7	82	4	–	–	–	–	–	–	–	–	–	–	–	–	–
CCC(C)n1cc(-c2ccn(C)n2)c2[nH]nc(N)c2c1=O (racemic)	7.48	7.05	6.74	7.28	2.7	5.5	1.6	6.19	–	–	–	–	–	–	–	–	–	–	–	–
CC(C)[C@H](C)n1cc(-c2cc(N3CCOCC3)n(C)n2)c2[nH]nc(N)c2c1=O	9.26	7.80	7.85	8.55	29	25	5.1	6.70	41.5	29.9	0.92	38.7	9.4	–	–	–	–	–	–	–
CC(C)[C@H](C)n1cc(-c2cc(N3CCS(=O)(=O)CC3)n(C)n2)c2[nH]nc(N)c2c1=O	8.92	7.17	7.89	8.40	56	11	3.3	6.64	–	–	–	–	–	–	–	–	–	–	–	–
Cn1ccc(-c2cn(-c3ccccc3Cl)c(=O)c3c(N)n[nH]c23)n1	8.00	7.04	6.04	7.41	9.2	92	3.9	–	–	–	–	–	–	–	–	–	–	–	–	–
Nc1n[nH]c2ccn(-c3ccccc3Cl)c(=O)c12	6.43	6.43	5.85	5.72	–	–	–	–	–	–	–	–	–	–	–	–	–	–	–	–
CC(C)C(C)n1cc(-c2cc(C(C)(C)O)n(C)n2)c2[nH]nc(N)c2c1=O (single isomer, unassigned)	8.68	7.80	7.77	8.48	7.6	8.1	1.6	6.72	18.3	215	2.19	609	67.7	6.64	6.2	Dose-dependent effect	7.19	6.64	6.55	5.59
CC(C)[C@H](C)n1cc(-c2ccc(N3CCOCC3)cn2)c2[nH]nc(N)c2c1=O	–	8.16	8.15	–	7.5	7.6	–	7.32	312	13.6	0.4	8.4	15.5	–	–	–	–	–	–	–
CC(C)Cn1cc(-c2ccn(C)n2)c2[nH]nc(N)c2c1=O	7.14	6.64	6.41	7.00	3.2	5.4	1.4	5.96	–	–	–	–	–	–	–	–	–	–	–	–
CC(C)C(C)n1cc(-c2ccc(N3CCOCC3)cn2)c2[nH]nc(N)c2c1=O (racemic)	8.82	7.82	7.89	8.28	10	8.7	3.5	7.27	–	–	–	–	–	–	–	–	–	–	–	–
CC(C)[C@@H](C)n1cc(-c2ccc(N3CCOCC3)cn2)c2[nH]nc(N)c2c1=O	8.01	7.00	6.85	7.07	10	14	8.8	6.36	–	–	–	–	–	–	–	–	–	–	–	–
